A short description of data set [1]: Protein-binding rate of aluminum in rat plasma by ultrafiltration, with citric acid added. In kind it is in vitro ADME. The note with it: aluminum 50 μg/L, citric acid final concentration raised by 3 mg/dL, 37° C. 60 minutes, no citric acid: 23.4±10.0%. How it is done:
Whether aluminum combined to proteins chelates with citric acid and is dissociated from the proteins in rat plasma was examined.
A used indicator was the protein-binding rates (by ultrafiltration method) when citric acid was added and when not added.
Aluminum was added to rat blood plasma to make the concentration 50 μg/L, and citric acid was added there to make the final concentration rise by 3 mg/dL. Then, it was incubated at 37° C. for 60 minutes. After that, the solution was centrifuged in a centrifuge (Centrifree) to obtain about 100 μL of filtrate. The aluminum concentrations of the added sample, the supernatant and the filtrate were measured respectively by the HPLC method (Chromatoracer Al; SHINO-TEST Corp.) to calculate the protein-binding rates.

Data set [2] in a line: Elimination of aluminum accumulated in rat thigh bones by repeated intravenous citric acid. In kind it is in vivo. The note with it: aluminum-loaded male rats, 0.75% citric acid solution i.v. 4 hours, three times a week for 4 weeks. How it is done: After aluminum accumulations were made in rat tissues, citric acid as an aluminum complexing agent was administered intravenously repeatedly to examine whether citric acid would eliminate the aluminum accumulated in the tissues.
Aluminum was administered to male rats intraperitoneally repeatedly once a day for 6 weeks at 2 mg/kg. Then, the rats were cannulated in the jugular vein.
From the jugular cannula, 0.75% citric acid solution was administered repeatedly taking the same dialysis time and frequency as in human; that is, for 4 hours continuously intravenously three times a week for 4 weeks.
For the control group, physiological saline was administered in the same means. Each group had 4 to 6 rats.
After the 4-week administration, thigh bones were collected from the rats to compare the aluminum levels in the thigh bones of both groups using the ratios of the aluminum peak area analyzed by the HPLC method against the peak area of internal standard substance as an indicator.

The nature of data set [3]: Citric acid concentration in patient blood plasma during dialysis with citric acid-containing dialysate. In kind it is in vivo, human. The note with it: 1.7 mEq/L of citric acid added to a dialysate during a dialysis treatment. How it is done: The present invention provides a dialysate comprising aluminum complexing agents. Preferably, the aluminum complexing agent is citric acid. […] Meanwhile, it had been confirmed that, when 1.7 mEq/L of citric acid had been added to a dialysate during a dialysis treatment, the citric acid concentration in the patient blood plasma had risen by about 3 mg/dL. In the following examples, how this phenomenon effects on the aluminum kinetics in vivo was examined.

For the molecule `O=C(O)CC(O)(CC(=O)O)C(=O)O` [citric acid], the free-aluminum percentage in data set [1] was determined as 35.5±0.4%. In addition, the “thighbone aluminum levels compared with control group” value in data set [2] (P<0.05 Student's t-test) was “statistically significantly lower”. Moreover, the “thigh bone aluminum level: ratio of aluminum peak area (HPLC) against peak area of internal standard” value in data set [2] (saline control 4.46±0.52, mean±S.D.) amounted to 3.62±0.27. Further, the “rise of citric acid concentration in patient blood plasma” value in data set [3] was “about 3 mg/dL”.
